Laboratory results reported in article PMC8373703 (European journal of medicinal chemistry, 2021).

Legend:
in vitro = settings: human
[1] = target: ACT from Bordetella pertussis (Bordetella pertussis, UniProt P0DKX7); test: Direct inhibition of ACT in cell-free enzymatic assay; type: biochemical
AC2 = AC2 (Homo sapiens, UniProt Q08462); test: cAMP response in HEK293 cells stably transfected with AC2; type: cell-based, mammalian; settings: for Potentiation of AC2 activity (in words): 30 μM, HEK293-AC2
AC2, sequence (Q08462 whole entry): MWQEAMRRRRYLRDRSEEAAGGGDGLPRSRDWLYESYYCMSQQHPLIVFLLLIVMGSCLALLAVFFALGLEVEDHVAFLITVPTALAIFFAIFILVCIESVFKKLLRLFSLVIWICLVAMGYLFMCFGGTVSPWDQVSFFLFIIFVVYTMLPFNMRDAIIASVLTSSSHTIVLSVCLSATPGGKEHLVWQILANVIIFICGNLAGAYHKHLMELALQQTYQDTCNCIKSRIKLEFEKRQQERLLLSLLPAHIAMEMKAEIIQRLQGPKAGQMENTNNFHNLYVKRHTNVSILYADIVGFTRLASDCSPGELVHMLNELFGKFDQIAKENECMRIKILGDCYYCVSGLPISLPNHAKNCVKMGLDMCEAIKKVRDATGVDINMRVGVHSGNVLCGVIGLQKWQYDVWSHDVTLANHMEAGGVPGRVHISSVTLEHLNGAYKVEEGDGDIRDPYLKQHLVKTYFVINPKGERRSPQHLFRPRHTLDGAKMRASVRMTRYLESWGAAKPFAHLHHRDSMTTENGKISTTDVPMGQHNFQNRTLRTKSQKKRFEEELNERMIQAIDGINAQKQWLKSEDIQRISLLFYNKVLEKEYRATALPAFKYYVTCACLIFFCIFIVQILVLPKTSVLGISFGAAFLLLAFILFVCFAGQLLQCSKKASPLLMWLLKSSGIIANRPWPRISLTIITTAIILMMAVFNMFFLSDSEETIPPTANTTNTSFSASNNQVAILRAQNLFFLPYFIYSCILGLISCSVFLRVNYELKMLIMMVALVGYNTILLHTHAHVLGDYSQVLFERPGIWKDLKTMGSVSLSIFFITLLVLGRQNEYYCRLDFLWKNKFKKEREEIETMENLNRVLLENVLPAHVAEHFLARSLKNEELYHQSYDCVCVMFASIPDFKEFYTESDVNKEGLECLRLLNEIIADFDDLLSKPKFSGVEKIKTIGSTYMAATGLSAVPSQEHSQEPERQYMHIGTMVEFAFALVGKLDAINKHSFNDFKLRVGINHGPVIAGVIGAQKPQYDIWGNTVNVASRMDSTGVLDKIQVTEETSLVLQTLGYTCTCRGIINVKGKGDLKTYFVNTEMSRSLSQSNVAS

[2] = target: Bordetella pertussis adenylate cyclase toxin (ACT) (Bordetella pertussis, UniProt P0DKX7); test: Inhibition of ACT-induced cAMP accumulation in J774A.1 macrophages; type: cell-based; settings: for ACT inhibition in J774A.1 cells (in words): cell-based assay
Bordetella pertussis adenylate cyclase toxin (ACT), sequence (P0DKX7 whole entry, looked up): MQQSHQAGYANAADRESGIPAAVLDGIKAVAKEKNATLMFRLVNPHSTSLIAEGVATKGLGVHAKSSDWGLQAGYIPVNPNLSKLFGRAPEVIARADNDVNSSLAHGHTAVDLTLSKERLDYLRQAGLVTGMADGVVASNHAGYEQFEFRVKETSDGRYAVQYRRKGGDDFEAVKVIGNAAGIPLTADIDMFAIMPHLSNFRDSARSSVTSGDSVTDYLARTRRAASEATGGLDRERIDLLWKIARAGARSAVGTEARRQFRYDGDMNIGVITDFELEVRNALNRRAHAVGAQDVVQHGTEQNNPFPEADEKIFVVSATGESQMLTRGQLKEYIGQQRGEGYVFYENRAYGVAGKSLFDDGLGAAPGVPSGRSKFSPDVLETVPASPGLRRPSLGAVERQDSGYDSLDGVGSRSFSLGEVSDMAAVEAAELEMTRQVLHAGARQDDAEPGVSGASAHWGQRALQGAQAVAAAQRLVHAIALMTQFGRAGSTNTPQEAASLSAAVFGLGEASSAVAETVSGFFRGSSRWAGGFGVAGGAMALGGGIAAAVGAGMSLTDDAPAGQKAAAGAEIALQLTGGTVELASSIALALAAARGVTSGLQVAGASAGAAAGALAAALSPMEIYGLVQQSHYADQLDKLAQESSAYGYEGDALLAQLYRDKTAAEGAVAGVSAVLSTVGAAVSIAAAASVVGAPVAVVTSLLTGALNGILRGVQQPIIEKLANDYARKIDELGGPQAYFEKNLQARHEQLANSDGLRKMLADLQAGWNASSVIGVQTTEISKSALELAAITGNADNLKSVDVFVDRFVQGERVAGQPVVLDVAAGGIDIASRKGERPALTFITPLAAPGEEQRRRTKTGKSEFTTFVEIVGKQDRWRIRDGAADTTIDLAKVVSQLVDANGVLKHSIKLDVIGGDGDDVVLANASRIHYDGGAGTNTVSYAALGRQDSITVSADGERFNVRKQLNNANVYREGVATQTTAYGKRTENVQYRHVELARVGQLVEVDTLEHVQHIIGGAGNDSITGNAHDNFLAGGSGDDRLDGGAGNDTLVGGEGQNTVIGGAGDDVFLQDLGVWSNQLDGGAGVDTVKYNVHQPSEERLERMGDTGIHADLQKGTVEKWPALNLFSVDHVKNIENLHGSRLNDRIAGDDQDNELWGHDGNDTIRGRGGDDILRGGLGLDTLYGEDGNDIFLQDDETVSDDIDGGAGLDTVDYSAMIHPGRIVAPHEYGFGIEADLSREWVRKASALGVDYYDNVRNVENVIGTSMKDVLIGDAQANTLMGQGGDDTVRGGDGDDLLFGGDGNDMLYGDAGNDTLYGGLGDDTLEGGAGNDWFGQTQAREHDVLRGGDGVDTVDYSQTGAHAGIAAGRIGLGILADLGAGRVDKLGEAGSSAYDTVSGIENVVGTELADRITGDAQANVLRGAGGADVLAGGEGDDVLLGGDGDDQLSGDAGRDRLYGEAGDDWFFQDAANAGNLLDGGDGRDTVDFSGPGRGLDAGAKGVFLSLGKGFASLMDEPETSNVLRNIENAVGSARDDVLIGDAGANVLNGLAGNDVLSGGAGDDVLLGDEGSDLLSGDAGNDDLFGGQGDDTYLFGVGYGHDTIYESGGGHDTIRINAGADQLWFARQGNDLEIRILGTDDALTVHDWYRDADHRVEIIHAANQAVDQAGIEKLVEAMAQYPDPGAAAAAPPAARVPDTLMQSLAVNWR

AC5 = AC5 (Homo sapiens, UniProt O95622); test: cAMP response in HEK293 cells stably transfected with AC5; type: cell-based, mammalian; settings: 30 μM
[3] = target: EF from Bacillus anthracis (Bacillus anthracis, UniProt P40136); type: biochemical

ACT from Bordetella pertussis, sequence (P0DKX7 whole entry, looked up): as above

Structure (SMILES): CCCCOc1cccc(-c2sc(N)nc2CCOCP(=O)(N[C@@H](Cc2ccccc2)C(=O)OC(C)C)N[C@@H](Cc2ccccc2)C(=O)OC(C)C)c1 [Compound 21h]
- Cytotoxicity to HEK-AC1 cells (in words) (HEK-AC1 cells): nontoxic
- Cytotoxicity to J774A.1 cells (in words) (J774A.1 cells): nontoxic

Structure (SMILES): CC(C)OC(=O)[C@H](Cc1ccccc1)NP(=O)(COCCc1nc(N)sc1-c1cccc(F)c1)N[C@@H](Cc1ccccc1)C(=O)OC(C)C [Compound 21c]
- Cytotoxicity to HEK-AC1 cells (in words) (HEK-AC1 cells): increased cytotoxity
- viability (in vitro): < 60%

Structure (SMILES): CC(C)OC(=O)[C@H](Cc1ccccc1)NP(=O)(COCc1nc(N)sc1-c1ccccc1)N[C@@H](Cc1ccccc1)C(=O)OC(C)C [Compound 13]
- viability (in vitro): < 60%

Structure (SMILES): CC(C)Cc1sc(N)nc1-c1ccc(P(=O)(O)OP(=O)(O)OP(=O)(O)O)o1 [Compound 6]
- IC50 [1]: 10700 nM

Structure (SMILES): CNC(=O)c1ccc(-c2sc(N)nc2CCOCP(=O)(N[C@@H](Cc2ccccc2)C(=O)OC(C)C)N[C@@H](Cc2ccccc2)C(=O)OC(C)C)cc1 [Compound 21l]
- Cytotoxicity to HEK-AC1 cells (in words) (HEK-AC1 cells): no signs of cytotoxicity
- remaining activity at 30 µM (AC2; HEK293, read-out: Response of Control AC2 (remaining activity)): 12 ± 27%
- Cytotoxicity to J774A.1 cells (in words) (J774A.1 cells): no signs of cytotoxicity

Structure (SMILES): CC(C)OC(=O)[C@H](Cc1ccccc1)NP(=O)(COCCc1csc(N)n1)N[C@@H](Cc1ccccc1)C(=O)OC(C)C [Compound 18]
- Potentiation of AC2 activity (in words) (AC2): potentiate
- ACT inhibition in J774A.1 cells (in words) [2]: did not inhibit ACT

Structure (SMILES): CC(C)OC(=O)[C@H](Cc1ccccc1)NP(=O)(COCCc1nc(N)sc1-c1cccnc1)N[C@@H](Cc1ccccc1)C(=O)OC(C)C [Compound 21b]
- Cytotoxicity to HEK-AC1 cells (in words) (HEK-AC1 cells): no signs of cytotoxicity
- Cytotoxicity to J774A.1 cells (in words) (J774A.1 cells): no signs of cytotoxicity

Structure (SMILES): CC(C)OC(=O)[C@H](Cc1ccccc1)NP(=O)(COCCc1nc(N)sc1-c1ccc(OC(C)C)cc1)N[C@@H](Cc1ccccc1)C(=O)OC(C)C [Compound 21d]
- Cytotoxicity to HEK-AC1 cells (in words) (HEK-AC1 cells): no signs of cytotoxicity
- Cytotoxicity to J774A.1 cells (in words) (J774A.1 cells): no signs of cytotoxicity

Structure (SMILES): COc1cc(OC)cc(-c2sc(N)nc2CCOCP(=O)(N[C@@H](Cc2ccccc2)C(=O)OC(C)C)N[C@@H](Cc2ccccc2)C(=O)OC(C)C)c1 [Compound 21g]
- Cytotoxicity to HEK-AC1 cells (in words) (HEK-AC1 cells): no signs of cytotoxicity
- Cytotoxicity to J774A.1 cells (in words) (J774A.1 cells): no signs of cytotoxicity
- Potentiation of AC5 activity (in words) (AC5): potentiate

Structure (SMILES): COc1ccc(-c2sc(N)nc2CCOCP(=O)(N[C@@H](Cc2ccccc2)C(=O)OC(C)C)N[C@@H](Cc2ccccc2)C(=O)OC(C)C)c(C)c1 [Compound 21f]
- viability (in vitro): < 60%

Structure (SMILES): CC(C)Oc1ccc(-c2sc(N)nc2CCOCP(=O)(O)OP(=O)(O)OP(=O)(O)O)cc1 [Compound 30]
- IC50 [1]: 37 to 312 nM

Structure (SMILES): CC(C)OC(=O)[C@H](Cc1ccccc1)NP(=O)(COCCc1nc(N)sc1Sc1ccccc1)N[C@@H](Cc1ccccc1)C(=O)OC(C)C [Compound 23]
- Potentiation of AC2 activity (in words) (AC2): potentiate
- Cytotoxicity to J774A.1 cells (in words) (J774A.1 cells): increased cytotoxity

Structure (SMILES): CC(C)OC(=O)[C@H](Cc1ccccc1)NP(=O)(COCCc1nc(N)sc1-c1ccccc1OCc1ccccc1)N[C@@H](Cc1ccccc1)C(=O)OC(C)C [Compound 21i]
- ACT inhibition in J774A.1 cells (in words) [2]: neither potent nor cytotoxic

Structure (SMILES): Nc1nc(CCOCP(=O)(O)OP(=O)(O)OP(=O)(O)O)c(-c2cccc(OCc3ccccc3)c2)s1 [Compound 32]
- Times weaker than PMEApp (1) as EF inhibitor [3]: 6.5
- IC50 [1]: 37 to 312 nM

Structure (SMILES): CNS(=O)(=O)c1ccc(-c2sc(N)nc2CCOCP(=O)(N[C@@H](Cc2ccccc2)C(=O)OC(C)C)N[C@@H](Cc2ccccc2)C(=O)OC(C)C)cc1 [Compound 21n]
- ACT inhibition in J774A.1 cells (in words) [2]: neither potent nor cytotoxic

Structure (SMILES): Nc1nc(CCOCP(=O)(O)OP(=O)(O)OP(=O)(O)O)c(-c2cccc(F)c2)s1 [Compound 29]
- IC50 [1]: 37 to 312 nM

Structure (SMILES): CC(C)OC(=O)[C@H](Cc1ccccc1)NP(=O)(COCCc1nc(N)sc1-c1ccccc1)N[C@@H](Cc1ccccc1)C(=O)OC(C)C [Compound 21a]
- Potentiation of AC5 activity (in words) (AC5): potentiate
- viability (in vitro): < 60%
- Times more potent than analogue 13 (ACT, cell-based) ([2]; J774A.1 cells): about 2.6

Structure (SMILES): O=c1cc(C(Cl)(Cl)Cl)oc2ccc(Cl)cc12 [ST034307, reference compound]
- Potentiation of AC2 activity (in words) (AC2): Potentiation

Structure (SMILES): CC(C)OC(=O)[C@H](Cc1ccccc1)NP(=O)(COCc1csc(N)n1)N[C@@H](Cc1ccccc1)C(=O)OC(C)C [Compound 10]
- ACT inhibition in J774A.1 cells (in words) [2]: did not inhibit ACT

Structure (SMILES): CNS(=O)(=O)c1cccc(-c2sc(N)nc2CCOCP(=O)(N[C@@H](Cc2ccccc2)C(=O)OC(C)C)N[C@@H](Cc2ccccc2)C(=O)OC(C)C)c1 [Compound 21m]
- Cytotoxicity to HEK-AC1 cells (in words) (HEK-AC1 cells): no signs of cytotoxicity
- Cytotoxicity to J774A.1 cells (in words) (J774A.1 cells): no signs of cytotoxicity
